The values below come from patent publication US10023570B2 (Array BioPharma, Inc., priority 2015, dated 2018).

Counter-ions that a name gives are not always drawn. A value given as a limit tells only on which side of the number the result lay.

The experiment deals with human KDR protein in HEK-293 cells (Homo sapiens (Human), UniProt P35968). The experiment is described as follows: KDR Cell Assay (phospho-KDR in HEK-293 cells expressing inducible KDR). In kind it is cell-based. Conditions: pKDR Cell HEK 10% FBS IC50, HEK-293 cells expressing inducible KDR, VEGF stimulated. The gist of the method: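 HEK-293 cells with inducible human KDR were treated with compound for 1 h in DMEM (0.25% DMSO final), then lysed. Phospho-KDR was quantified by Meso Scale immunoassay, expressed as percent of control, and IC50 taken where a 4-parameter logistic fit crossed 50 POC.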
Sequence of human KDR protein in HEK-293 cells (P35968 20-1356): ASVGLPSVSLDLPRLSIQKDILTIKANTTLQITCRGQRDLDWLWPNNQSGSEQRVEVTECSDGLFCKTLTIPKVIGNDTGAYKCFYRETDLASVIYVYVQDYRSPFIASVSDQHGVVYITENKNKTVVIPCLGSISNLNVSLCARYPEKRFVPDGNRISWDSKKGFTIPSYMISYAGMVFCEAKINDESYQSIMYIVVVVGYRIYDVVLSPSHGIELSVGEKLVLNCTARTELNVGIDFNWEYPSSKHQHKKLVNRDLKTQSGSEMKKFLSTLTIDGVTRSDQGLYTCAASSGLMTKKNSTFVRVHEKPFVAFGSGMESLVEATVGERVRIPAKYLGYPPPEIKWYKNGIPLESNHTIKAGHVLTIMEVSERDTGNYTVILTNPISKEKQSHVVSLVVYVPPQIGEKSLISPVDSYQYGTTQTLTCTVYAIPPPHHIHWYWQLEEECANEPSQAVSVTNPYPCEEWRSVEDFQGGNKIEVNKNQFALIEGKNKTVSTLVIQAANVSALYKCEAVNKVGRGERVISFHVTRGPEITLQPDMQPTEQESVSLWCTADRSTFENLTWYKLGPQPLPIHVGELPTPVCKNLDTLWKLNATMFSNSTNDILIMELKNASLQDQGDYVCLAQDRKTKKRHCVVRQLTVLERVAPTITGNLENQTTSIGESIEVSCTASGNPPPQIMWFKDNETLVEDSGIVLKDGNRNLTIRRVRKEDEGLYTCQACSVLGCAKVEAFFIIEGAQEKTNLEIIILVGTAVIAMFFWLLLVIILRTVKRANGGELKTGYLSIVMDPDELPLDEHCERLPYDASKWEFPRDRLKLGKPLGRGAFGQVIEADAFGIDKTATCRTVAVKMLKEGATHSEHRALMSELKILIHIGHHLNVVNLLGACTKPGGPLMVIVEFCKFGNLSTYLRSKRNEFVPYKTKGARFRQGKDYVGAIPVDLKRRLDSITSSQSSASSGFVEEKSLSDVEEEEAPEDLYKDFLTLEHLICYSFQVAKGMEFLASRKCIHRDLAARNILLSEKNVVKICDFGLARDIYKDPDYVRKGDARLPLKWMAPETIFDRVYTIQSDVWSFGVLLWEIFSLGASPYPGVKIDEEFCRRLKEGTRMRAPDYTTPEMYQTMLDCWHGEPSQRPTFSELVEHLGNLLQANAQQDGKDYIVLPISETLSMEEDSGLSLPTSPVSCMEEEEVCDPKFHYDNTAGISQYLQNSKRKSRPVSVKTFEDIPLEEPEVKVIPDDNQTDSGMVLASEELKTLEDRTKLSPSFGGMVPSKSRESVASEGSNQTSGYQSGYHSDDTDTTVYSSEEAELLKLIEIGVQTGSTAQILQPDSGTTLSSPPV

Broadly, the IC50 is the concentration that gives 50% inhibition. A low value points to greater potency in that assay. Consider `Cn1cc(-c2cc(-c3ccc(N4CCN(C(=O)C5(c6cccc(F)c6)CC5)CC4)nc3)c3c(C#N)cnn3c2)cn1` [Example 349, 4-(6-(4-(1-(3-fluorophenyl)cyclopropanecarbonyl)piperazin-1-yl)pyridin-3-yl)-6-(1-methyl-1H-pyrazol-4-yl)pyrazolo[1,5-a]pyridine-3-carbonitrile], for which the IC50 (10% FBS) amounted to 404 nM.
For the compound `CC(=O)N1CC2(CCN(c3ccc(-c4cc(-c5cnn(C)c5)cn5ncc(C#N)c45)cn3)CC2)C1` [Example 220, 4-(6-(2-acetyl-2,7-diazaspiro[3.5]nonan-7-yl)pyridin-3-yl)-6-(1-methyl-1H-pyrazol-4-yl)pyrazolo[1,5-a]pyridine-3-carbonitrile], it took 617 nM to reach half-maximal inhibition (10% FBS) (IC50).
For `Cc1nccc(CN2CCN(c3ccc(-c4cc(-c5cnn(C)c5)cn5ncc(C#N)c45)cn3)CC2)n1` [Example 467, 6-(1-methyl-1H-pyrazol-4-yl)-4-(6-(4-((2-methylpyrimidin-4-yl)methyl)piperazin-l-yl)pyridin-3-yl)pyrazolo[1,5-a]pyridine-3-carbonitrile], the IC50 stood at 1540 nM.
Still for that read-out and setting: in the case of `Cn1cc(-c2cc(-c3ccc(N4CCN(Cc5ccccc5)CC4)nc3)c3c(C#N)cnn3c2)c(C2CC2)n1` [Example 619, 4-(6-(4-benzylpiperazin-1-yl)pyridin-3-yl)-6-(3-cyclopropyl-1-methyl-1H-pyrazol-4-yl)pyrazolo[1,5-a]pyridine-3-carbonitrile] it was no less than 5000 nM.
Take `CC(C)N1CC(n2cc(-c3cc(-c4ccc(N5CCN(Cc6ccccc6)CC5)nc4)c4c(C#N)cnn4c3)cn2)C1` [Example 596, 4-(6-(4-benzylpiperazin-1-yl)pyridin-3-yl)-6-(1-(1-isopropylazetidin-3-yl)-1H-pyrazol-4-yl)pyrazolo[1,5-a]pyridine-3-carbonitrile]: the 50% inhibitory concentration (IC50) was 305 nM. That is a sub-micromolar value.
Where the note is “10% FBS”, `Cn1cc(-c2cc(-c3ccc(N4CCN(S(=O)(=O)C5CCOCC5)CC4)nc3)c3c(C#N)cnn3c2)cn1` [Example 91, 6-(1-methyl-1H-pyrazol-4-yl)-4-(6-(4-((tetrahydro-2H-pyran-4-yl)sulfonyl)piperazin-1-yl)pyridin-3-yl)pyrazolo[1,5-a]pyridine-3-carbonitrile] gave an IC50 of 60.1 nM. That is a double-digit nanomolar value.
On the same count and under the same terms, in the case of `Cn1cc(-c2cc(-c3ccc(N4CCN(C(=O)N5CCC(F)(F)C5)CC4)nc3)c3c(C#N)cnn3c2)cn1` [Example 101, 4-(6-(4-(3,3-difluoropyrrolidine-1-carbonyl)piperazin-1-yl)pyridin-3-yl)-6-(1-methyl-1H-pyrazol-4-yl)pyrazolo[1,5-a]pyridine-3-carbonitrile] it was 868 nM.
As to `N#Cc1cnn2cc(-c3cnn(C4CNC4)c3)cc(-c3ccc(N4CCN(Cc5ccccc5)CC4)nc3)c12` [Example 595, 6-(1-(azetidin-3-yl)-1H-pyrazol-4-yl)-4-(6-(4-benzylpiperazin-1-yl)pyridin-3-yl)pyrazolo[1,5-a]pyridine-3-carbonitrile dihydrochloride], the 50% inhibitory concentration (IC50) turned out to be 217 nM.
`Cn1cc(-c2cc(-c3ccc(N4CCN(C(=O)Cc5ccn(C)n5)CC4)nc3)c3c(C#N)cnn3c2)cn1` [Example 42, 4-(6-(4-(2-(1-methyl-1H-pyrazol-3-yl)acetyl)piperazin-1-yl)pyridin-3-yl)-6-(1-methyl-1H-pyrazol-4-yl)pyrazolo[1,5-a]pyridine-3-carbonitrile 2,2,2-trifluoroacetate]: for the setting “10% FBS”, it took 502 nM to reach half-maximal inhibition (IC50).
Turning to `CCOCCN1CCN(c2ccc(-c3cc(-c4cnn(C)c4)cn4ncc(C#N)c34)cn2)CC1` [Example 397, 4-(6-(4-(2-ethoxyethyl)piperazin-1-yl)pyridin-3-yl)-6-(1-methyl-1H-pyrazol-4-yl)pyrazolo[1,5-a]pyridine-3-carbonitrile], the IC50 was found to be 1500 nM.
Take `Cn1cc(-c2cc(-c3ccc(N4CCN(C(=O)[C@H](N)c5ccccc5)CC4)nc3)c3c(C#N)cnn3c2)cn1` [Example 48, (R)-4-(6-(4-(2-amino-2-phenylacetyl)piperazin-1-yl)pyridin-3-yl)-6-(1-methyl-1H-pyrazol-4-yl)pyrazolo[1,5-a]pyridine-3-carbonitrile bis(2,2,2-trifluoroacetate)]: for the setting “10% FBS”, the IC50 was 612 nM.
Compound `Cc1cnn2cc(-c3cnn(C)c3)cc(-c3ccc(N4CCN(C(=O)[C@H](O)c5ccccc5)CC4)nc3)c12` [Example 652, (R)-2-hydroxy-1-(4-(5-(3-methyl-6-(1-methyl-1H-pyrazol-4-yl)pyrazolo[1,5-a]pyridin-4-yl)pyridin-2-yl)piperazin-1-yl)-2-phenyl ethan-1-one] came in with an IC50 of 1700 nM.
In turn, `Cn1cc(-c2cc(-c3ccc(N4CCC5(CCN(C(=O)OC(C)(C)C)C5)CC4)nc3)c3c(C#N)cnn3c2)cn1` [Example 204, tert-butyl 8-(5-(3-cyano-6-(1-methyl-1H-pyrazol-4-yl)pyrazolo[1,5-a]pyridin-4-yl)pyridin-2-yl)-2,8-diazaspiro[4.5]decane-2-carboxylate] registered an IC50 (10% FBS) of 429 nM.
As to `Cn1cc(-c2cc(-c3ccc(C4CCCN(Cc5ccccc5)C4)nc3)c3c(C#N)cnn3c2)cn1` (centres unmarked) [Example 581, 4-(6-(1-benzylpiperidin-3-yl)pyridine-3-yl)-6-(1-methyl-1H-pyrazol-4-yl)pyrazolo[1,5-a]pyridine-3-carbonitrile], half-maximal inhibition (IC50) required 671 nM.
Still for that read-out and setting: the same measure for `Cc1cc(CN2CCN(c3ccc(-c4cc(-c5cnn(C)c5)cn5ncc(C#N)c45)cn3)CC2)no1` [Example 436, 6-(1-methyl-1H-pyrazol-4-yl)-4-(6-(4-((5-methylisoxazol-3-yl)methyl)piperazin-1-yl)pyridin-3-yl)pyrazolo[1,5-a]pyridine-3-carbonitrile]: 536 nM; for `Cn1cc(-c2cc(-c3ccc(N4CCC5(CCN(C(=O)OC(C)(C)C)C5)C4)nc3)c3c(C#N)cnn3c2)cn1` (centres unmarked) [Example 519, tert-butyl 7-(5-(3-cyano-6-(1-methyl-1H-pyrazol-4-yl)pyrazolo[1,5-a]pyridin-4-yl)pyridin-2-yl)-2,7-diazaspiro[4.4]nonane-2-carboxylate]: 1250 nM.
`Cn1cc(-c2cc(-c3ccc(N4CCN(Cc5ncccn5)CC4)nc3)c3c(C#N)cnn3c2)cn1` [Example 472, 6-(1-methyl-1H-pyrazol-4-yl)-4-(6-(4-(pyrimidin-2-ylmethyl)piperazin-1-yl)pyridin-3-yl)pyrazolo[1,5-a]pyridine-3-carbonitrile] registered an IC50 of 1770 nM.
As for `Cn1cc(-c2cc(-c3ccc(N4CCN(C(=O)C[C@H](N)c5ccccc5)CC4)nc3)c3c(C#N)cnn3c2)cn1` [Example 23, (S)-4-(6-(4-(3-amino-3-phenylpropanoyl)piperazin-1-yl)pyridin-3-yl)-6-(1-methyl-1H-pyrazol-4-yl)pyrazolo[1,5-a]pyridine-3-carbonitrile dihydrochloride], where the note is “10% FBS”, 45.4 nM corresponded to half-maximal inhibition (IC50).
For the setting “10% FBS”, `Cn1cc(-c2cc(-c3ccc(N4CCC(N5CC[C@H](O)C5=O)CC4)nc3)c3c(C#N)cnn3c2)cn1` [Example 190, (S)-4-(6-(4-(3-hydroxy-2-oxopyrrolidin-1-yl)piperidin-1-yl)pyridin-3-yl)-6-(1-methyl-1H-pyrazol-4-yl)pyrazolo[1,5-a]pyridine-3-carbonitrile] returned an IC50 of 277 nM.
Turning to `CC(C)[C@@H](O)C(=O)N1CCN(c2ncc(-c3cc(-c4cnn(C)c4)cn4ncc(C#N)c34)cn2)CC1` [Example 285, (R)-4-(2-(4-(2-hydroxy-3-methylbutanoyl)piperazin-1-yl)pyrimidin-5-yl)-6-(1-methyl-1H-pyrazol-4-yl)pyrazolo[1,5-a]pyridine-3-carbonitrile], half-maximal inhibition (10% FBS) (IC50) was put at 1710 nM.
In turn, `Cn1cc(-c2cc(-c3ccc(N4CCN(C(=O)N5CCN6CCCC6C5)CC4)nc3)c3c(C#N)cnn3c2)cn1` (centres unmarked) [Example 381, 6-(1-methyl-1H-pyrazol-4-yl)-4-(6-(4-(octahydropyrrolo[1,2-a]pyrazine-2-carbonyl)piperazin-1-yl)pyridin-3-yl)pyrazolo[1,5-a]pyridine-3-carbonitrile] showed a half-inhibitory concentration (IC50) of 811 nM.
In turn, `Cn1cc(-c2cc(-c3ccc(N4CCN(C(=O)CC(C)(C)C)C5(CC5)C4)nc3)c3c(C#N)cnn3c2)cn1` [Example 169, 4-(6-(4-(3,3-dimethylbutanoyl)-4,7-diazaspiro[2.5]octan-7-yl)pyridin-3-yl)-6-(1-methyl-1H-pyrazol-4-yl)pyrazolo[1,5-a]pyridine-3-carbonitrile] registered an IC50 (10% FBS) of 1440 nM.
`Cn1cc(-c2cc(-c3ccc(N4CCN(C(=O)[C@@H](CO)c5ccccc5)CC4)nc3)c3c(C#N)cnn3c2)cn1` [Example 373, (R)-4-(6-(4-(3-hydroxy-2-phenylpropanol)piperazin-1-yl)pyridin-3-yl)-6-(1-methyl-1H-pyrazol-4-yl)pyrazolo[1,5-a]pyridine-3-carbonitrile] gave an IC50 of 1820 nM.
On to `Cc1cnc(C(=O)N2CCN(c3ccc(-c4cc(-c5cnn(C)c5)cn5ncc(C#N)c45)cn3)CC2)cn1` [Example 49, 6-(1-methyl-1H-pyrazol-4-yl)-4-(6-(4-(5-methylpyrazine-2-carbonyl)piperazin-1-yl)pyridin-3-yl)pyrazolo[1,5-a]pyridine-3-carbonitrile bis(2,2,2-trifluoroacetate)], for which the IC50 (10% FBS) worked out at 237 nM.
Turning to `Cn1cc(-c2cc(-c3ccc(N4CCN(C(=O)[C@H]5CC[C@@H](O)C5)CC4)nc3)c3c(C#N)cnn3c2)cn1` [Example 12, 4-(6-(4-((1S,3R)-3-hydroxycyclopentane-1-carbonyl)piperazin-1-yl)pyridin-3-yl)-6-(1-methyl-1H-pyrazol-4-yl)pyrazolo[1,5-a]pyridine-3-carbonitrile], half-maximal inhibition (10% FBS) (IC50) was put at 1190 nM.
On to `Cn1cc(-c2cc(-c3ccc(N4CCN(Cc5ccccc5Cl)CC4)nc3)c3c(C#N)cnn3c2)cn1` [Example 454, 4-(6-(4-(2-chlorobenzyl)piperazin-1-yl)pyridin-3-yl)-6-(1-methyl-1H-pyrazol-4-yl)pyrazolo[1,5-a]pyridine-3-carbonitrile], for which half-maximal inhibition (IC50) was put at 698 nM.
